Read-outs that look alike come from different tables or passages of the source. Square brackets hold non-standard residues; d marks the D form. Peptide text beside a SMILES is read from it. * marks the point of attachment. NOTA(2S-Bn(4-NHCS)) = O=C(O)CN1CCN(CC(=O)O)C[C@H](Cc2ccc(NC(=S)*)cc2)N(CC(=O)O)CC1; Cit = NC(=O)NCCC[C@H](N)C(=O)O; Ahx = NCCCCCC(=O)O
Assay: In vivo biodistribution in HCT116 tumor-bearing mice
Conditions: female, mouse, iv, total radioactivity, mean (SD), n = 5; for tissue to tissue ratio at 1 h: BALB/c nu/nu, 7.4 kBq, HCT116 tumor-bearing mice, 1 h after i.v. injection; for tissue uptake at 1 h / tissue uptake dose at 1 h: 7.4 kBq i.v. (tail vein), 1 h after injection, gamma counter; for tissue uptake dose at 1 h: stomach (whole organ), whole organ
Method: Animal experiments were conducted in accordance with our institutional guidelines and were approved by the Nagasaki University Animal Care Committee and the Kanazawa University Animal Care Committee. The animal experimental protocols were approved by the Committee on Animal Experimentation of Nagasaki University and Kanazawa University. BALB/c nu/nu mice (female; 4 weeks old) were supplied by Japan SLC (Shizuoka, Japan). The mice were maintained in a room at a constant ambient temperature and a 12/12 h light/dark cycle and were given free access to food and water. Mice were subcutaneously injected on their right shoulders with approximately 1.0 × 10^7 HCT116 cells. The tumors were allowed to reach 300–500 mm^3 (1–2 weeks after inoculation) before biodistribution studies were performed.
Each [^67Ga]Ga-NOTA-peptide (7.4 kBq) was administered to mice via tail vein injection in 100 μL of saline. The mice were euthanized 1 h after injection, and their organs were harvested. The tissues were weighed and the radioactivity in each sample was measured using an automated gamma counter (n = 5). The results are expressed as the percent injected dose per gram of tissue (%ID/g) or as %ID.

[1] = tumor/blood, read-out: Tumor/Blood ratio
[2] = tumor/muscle, read-out: Tumor/Muscle ratio
[3] = blood, HCT116 tumor-bearing BALB/c nu/nu mice, read-out: Biodistribution, Blood
[4] = brain, HCT116 tumor-bearing BALB/c nu/nu mice, read-out: Biodistribution, Brain
[5] = heart, HCT116 tumor-bearing BALB/c nu/nu mice, read-out: Biodistribution, Heart
[6] = intestine, HCT116 tumor-bearing BALB/c nu/nu mice, read-out: Biodistribution, Intestine
[7] = HCT116 tumor, BALB/c nu/nu mice, read-out: Biodistribution, Tumor
[8] = kidney, HCT116 tumor-bearing BALB/c nu/nu mice, read-out: Biodistribution, Kidney
[9] = liver, HCT116 tumor-bearing BALB/c nu/nu mice, read-out: Biodistribution, Liver
[10] = lung, HCT116 tumor-bearing BALB/c nu/nu mice, read-out: Biodistribution, Lung
[11] = muscle, HCT116 tumor-bearing BALB/c nu/nu mice, read-out: Biodistribution, Muscle
[12] = pancreas, HCT116 tumor-bearing BALB/c nu/nu mice, read-out: Biodistribution, Pancreas
[13] = spleen, HCT116 tumor-bearing BALB/c nu/nu mice, read-out: Biodistribution, Spleen
[14] = HCT116 tumor-bearing BALB/c nu/nu mice

Row | Compound | tissue to tissue ratio at 1 h [1] | tissue to tissue ratio at 1 h [2] | tissue uptake at 1 h [3] | tissue uptake at 1 h [4] | tissue uptake at 1 h [5] | tissue uptake at 1 h [6] | tissue uptake at 1 h [7] | tissue uptake at 1 h [8] | tissue uptake at 1 h [9] | tissue uptake at 1 h [10] | tissue uptake at 1 h [11] | tissue uptake at 1 h [12] | tissue uptake at 1 h [13] | tissue uptake dose at 1 h [14]
1 | CC(=O)NCCCCCC(=O)N[C@H](CCC(=O)O)C(=O)N[C@H](CCC(=O)O)C(=O)N[C@H](CCC(=O)O)C(=O)N[C@H](CCC(=O)O)C(=O)N[C@H](CCC(=O)O)C(=O)N[C@H](CCC(=O)O)C(=O)N[C@H](CCC(=O)O)C(=O)N[C@H](CCC(=O)O)C(=O)N[C@H](CCC(=O)O)C(=O)NCCCCCC(=O)N1CCC[C@H]1C(=O)N[C@@H](C)C(=O)N[C@@H](C)C(=O)N[C@@H](CC(N)=O)C(=O)N[C@H](C(=O)NCC(=O)N[C@H](CCCNC(=N)N)C(=O)N[C@H](CCCNC(=N)N)C(=O)N[C@H](CCCNC(=N)N)C(=O)N[C@H](CCCNC(=N)N)C(=O)N[C@H](CCCNC(=N)N)C(=O)N[C@H](CCCNC(=N)N)C(=O)N[C@H](CCCNC(=N)N)C(=O)N[C@H](CCCNC(=N)N)C(=O)N[C@H](CCCNC(=N)N)C(=O)NCCCCCC(=O)N[C@H](CCCCNC(=S)Nc1ccc(C[C@H]2CN(CC(=O)O)CCN(CC(=O)O)CCN2CC(=O)O)cc1)C(N)=O)C(C)C [[^67Ga]Ga-NOTA-LCP-1, metal not drawn] (Ac-[Ahx][dE][dE][dE][dE][dE][dE][dE][dE][dE][Ahx]PAANVG[dR][dR][dR][dR][dR][dR][dR][dR][dR][Ahx][dK](NOTA(2S-Bn(4-NHCS)))-NH2) | 8.29 ± 3.41 | 3.54 | 0.28 %ID/g | 0.03 %ID/g | 0.53 %ID/g | 0.44 %ID/g | 1.83 ± 0.32 %ID/g | 129 %ID/g | 19.1 %ID/g | 0.93 %ID/g | 0.54 %ID/g | 0.31 %ID/g | 3.94 %ID/g | 0.18 %ID
2 | CC(=O)NCCCCCC(=O)N[C@H](CCC(=O)O)C(=O)N[C@H](CCC(=O)O)C(=O)N[C@H](CCC(=O)O)C(=O)N[C@H](CCC(=O)O)C(=O)NCCCCCC(=O)N1CCC[C@H]1C(=O)N[C@@H](C)C(=O)N[C@@H](C)C(=O)N[C@@H](CC(N)=O)C(=O)N[C@H](C(=O)NCC(=O)N[C@H](CCCNC(=N)N)C(=O)N[C@H](CCCNC(=N)N)C(=O)N[C@H](CCCNC(=N)N)C(=O)N[C@H](CCCNC(=N)N)C(=O)N[C@H](CCCNC(=N)N)C(=O)NCCCCCC(=O)N[C@H](CCCCNC(=S)Nc1ccc(C[C@H]2CN(CC(=O)O)CCN(CC(=O)O)CCN2CC(=O)O)cc1)C(N)=O)C(C)C [[^67Ga]Ga-NOTA-LCP-3, metal not drawn] (Ac-[Ahx][dE][dE][dE][dE][Ahx]PAANVG[dR][dR][dR][dR][dR][Ahx][dK](NOTA(2S-Bn(4-NHCS)))-NH2) | 2.2 ± 0.69 | 2.47 | 0.46 %ID/g | 0.04 %ID/g | 0.44 %ID/g | 0.63 %ID/g | 0.97 ± 0.25 %ID/g | 96.6 %ID/g | 17.2 %ID/g | 1.58 %ID/g | 0.4 %ID/g | 0.38 %ID/g | 4.37 %ID/g | 0.19 %ID
3 | CC(=O)NCCCCCC(=O)N[C@H](CCC(=O)O)C(=O)N[C@H](CCC(=O)O)C(=O)N[C@H](CCC(=O)O)C(=O)N[C@H](CCC(=O)O)C(=O)N[C@H](CCC(=O)O)C(=O)N[C@H](CCC(=O)O)C(=O)N[C@H](CCC(=O)O)C(=O)N[C@H](CCC(=O)O)C(=O)N[C@H](CCC(=O)O)C(=O)NCCCCCC(=O)N1CCC[C@H]1C(=O)N[C@@H](C)C(=O)N[C@@H](C)C(=O)N[C@@H](CCCNC(N)=O)C(=O)N[C@H](C(=O)NCC(=O)N[C@H](CCCNC(=N)N)C(=O)N[C@H](CCCNC(=N)N)C(=O)N[C@H](CCCNC(=N)N)C(=O)N[C@H](CCCNC(=N)N)C(=O)N[C@H](CCCNC(=N)N)C(=O)N[C@H](CCCNC(=N)N)C(=O)N[C@H](CCCNC(=N)N)C(=O)N[C@H](CCCNC(=N)N)C(=O)N[C@H](CCCNC(=N)N)C(=O)NCCCCCC(=O)N[C@H](CCCCNC(=S)Nc1ccc(C[C@H]2CN(CC(=O)O)CCN(CC(=O)O)CCN2CC(=O)O)cc1)C(N)=O)C(C)C [[^67Ga]Ga-NOTA-NCP-1, metal not drawn] (Ac-[Ahx][dE][dE][dE][dE][dE][dE][dE][dE][dE][Ahx]PAA[Cit]VG[dR][dR][dR][dR][dR][dR][dR][dR][dR][Ahx][dK](NOTA(2S-Bn(4-NHCS)))-NH2) | 4.39 ± 2.07 | 1.91 | 0.45 %ID/g | 0.04 %ID/g | 0.43 %ID/g | 0.53 %ID/g | 1.8 ± 0.51 %ID/g | 122 %ID/g | 17.4 %ID/g | 1.08 %ID/g | 0.96 %ID/g | 0.64 %ID/g | 3.15 %ID/g | 0.22 %ID
4 | CC(=O)NCCCCCC(=O)N[C@H](CCC(=O)O)C(=O)N[C@H](CCC(=O)O)C(=O)N[C@H](CCC(=O)O)C(=O)N[C@H](CCC(=O)O)C(=O)NCCCCCC(=O)N1CCC[C@H]1C(=O)N[C@@H](C)C(=O)N[C@@H](C)C(=O)N[C@@H](CCCNC(N)=O)C(=O)N[C@H](C(=O)NCC(=O)N[C@H](CCCNC(=N)N)C(=O)N[C@H](CCCNC(=N)N)C(=O)N[C@H](CCCNC(=N)N)C(=O)N[C@H](CCCNC(=N)N)C(=O)N[C@H](CCCNC(=N)N)C(=O)NCCCCCC(=O)N[C@H](CCCCNC(=S)Nc1ccc(C[C@H]2CN(CC(=O)O)CCN(CC(=O)O)CCN2CC(=O)O)cc1)C(N)=O)C(C)C [[^67Ga]Ga-NOTA-NCP-3, metal not drawn] (Ac-[Ahx][dE][dE][dE][dE][Ahx]PAA[Cit]VG[dR][dR][dR][dR][dR][Ahx][dK](NOTA(2S-Bn(4-NHCS)))-NH2) | 2.54 | 2.7 | 0.41 %ID/g | 0.04 %ID/g | 0.56 %ID/g | 0.54 %ID/g | 0.95 %ID/g | 73.3 %ID/g | 20.8 %ID/g | 1.36 %ID/g | 0.43 %ID/g | 0.46 %ID/g | 5.38 %ID/g | 0.12 %ID
